Results as given in PMC7529893, “Structural basis for substrate recognition and chemical inhibition of oncogenic MAGE ubiquitin ligases” (Nature Communications, 2020).

Target: T1, MAGE-A11:PCF11 interaction (GST-MAGE-A11 and FAM-PCF11_4) (Homo sapiens, UniProt P43364)
T1 construct: GST-MAGE-A11 MHD (human MAGE-A11 MHD amino acid 218-429); made in house; host or cells: E. coli BL21(DE3)
T1 sequence (P43364 218-429): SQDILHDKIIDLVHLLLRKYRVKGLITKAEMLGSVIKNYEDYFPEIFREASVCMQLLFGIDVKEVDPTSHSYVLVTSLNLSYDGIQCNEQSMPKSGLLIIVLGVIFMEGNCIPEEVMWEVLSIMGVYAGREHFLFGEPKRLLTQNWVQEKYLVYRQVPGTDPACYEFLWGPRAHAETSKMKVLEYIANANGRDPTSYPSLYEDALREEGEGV
Experiment: TR-FRET primary / single point screen at 15 µM
Assay type: binding
Procedure, shortened: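 TR-FRET 520/490 nm emission ratio was read after 90 min at room temperature. Wells held 5 nM GST-MAGE-A11, 5 nM Tb-anti-GST, 200 nM FAM-PCF11_4 and 15 µM compound in Tris pH 7.5 buffer with MgCl2, BSA and DTT. %Inhibition was scaled to DMSO and minus-MAGE-A11 controls.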

[1] = single point TR-FRET screening of 797 quinoline compounds against MAGE-A11:PCF11
[2] = single point TR-FRET screening of quinoline compounds against MAGE-A11:PCF11, 15 µM

Row | percent inhibition (TR-FRET) [1] | percent inhibition (TR-FRET) [2] | Structure (SMILES)
1 | – | 35.6327 | FC(F)(F)c1ccc2c(NCCCNCc3cc4ccccc4s3)ccnc2c1 [SJ000521060]
2 | – | 20.4621 | Clc1ccc2c(NCCCN(Cc3ccccc3)Cc3ccc[nH]3)ccnc2c1 [SJ000522717]
3 | 9.754 | – | CCC(CC)CN1CCC(Nc2ccnc3cc(Cl)ccc23)CC1 [SJ000523086]
4 | -157.809 | – | CCCN(CCCNc1c2ccc(Cl)cc2nc2ccc(OC)cc12)Cc1cccc(C)c1 [SJ000520954]
5 | -353.834 | – | COc1ccc2nc3cc(Cl)ccc3c(NCCCNCc3ccsc3)c2c1 [SJ000523026]
6 | – | 11.3882 | CCCN(CCCNc1ccnc2cc(C(F)(F)F)ccc12)Cc1ccc2ccccc2c1 [SJ000523075]
7 | – | 16.951 | CCCN(CCCNc1ccnc2cc(Cl)ccc12)Cc1ccc(Cl)c([N+](=O)[O-])c1 [SJ000522761]
8 | – | 3.83 | CCCN(CCCNc1ccnc2cc(C(F)(F)F)ccc12)Cc1ccc(Cl)cc1Cl [SJ000523078]
9 | – | 21.9858 | CCCN(CCCNc1ccnc2cc(Cl)ccc12)Cc1ccccc1F [SJ000522757]
10 | -355.207 | – | COc1ccc2nc3cc(Cl)ccc3c(NCCCNCc3nccs3)c2c1 [SJ000520989]
11 | – | -40.7667 | CCCN(CCCNc1c2ccc(Cl)cc2nc2ccc(OC)cc12)Cc1cccc2ccccc12 [SJ000520952]
12 | – | 9.598 | CCCN(CCCNc1c2ccc(Cl)cc2nc2ccc(OC)cc12)Cc1ccc(Cl)cc1Cl [SJ000520956]
13 | 11.185 | – | CCC(C)CN1CCC(Nc2ccnc3cc(Cl)ccc23)CC1 (stereo not shown) [SJ000523105]
14 | -442.307 | – | COc1ccc2nc3cc(Cl)ccc3c(NCCCNCC3CCOC3)c2c1 (stereo not shown) [SJ000521003]
15 | -192.351 | – | CCCN(CCCNc1c2ccc(Cl)cc2nc2ccc(OC)cc12)Cc1cn(C(C)=O)c2ccccc12 [SJ000522736]
16 | – | 4.828 | CCCN(CCCNc1ccnc2cc(Cl)ccc12)Cc1cncc(Br)c1 [SJ000523004]
17 | – | 3.413 | CCCN(CCCNc1ccnc2cc(Cl)ccc12)Cc1nc(C)cs1 [SJ000522997]
18 | 12.1652 | – | CCCCCN1CCC(Nc2ccnc3cc(Cl)ccc23)CC1 [SJ000523088]
19 | – | -56.7027 | CCCN(CCCNc1c2ccc(Cl)cc2nc2ccc(OC)cc12)Cc1cc(Br)cs1 [SJ000522989]
20 | – | 27.8488 | CCCN(CCCNc1ccnc2cc(C(F)(F)F)ccc12)Cc1cccc(F)c1 [SJ000521008]
21 | -169.736 | – | CCCN(CCCNc1c2ccc(Cl)cc2nc2ccc(OC)cc12)Cc1ccc(-c2cccc(Cl)c2)o1 [SJ000523020]
22 | 7.6432 | – | Clc1ccc2c(NC3CCN(Cc4ccc5c(c4)OCO5)CC3)ccnc2c1 [SJ000523087]
23 | -127.026 | – | CCCN(CCCNc1c2ccc(Cl)cc2nc2ccc(OC)cc12)Cc1scnc1C [SJ000522976]
24 | -154.43 | – | CCCN(CCCNc1c2ccc(Cl)cc2nc2ccc(OC)cc12)Cc1ccc([N+](=O)[O-])s1 [SJ000522735]
25 | – | 22.6913 | CCCN(CCCNc1c2ccc(Cl)cc2nc2ccc(OC)cc12)Cc1ccccc1OC(F)(F)F [SJ000522961]
26 | -231.84 | – | COc1ccc2nc3cc(Cl)ccc3c(NCCCNCc3cc(OC(F)(F)F)ccc3OC)c2c1 [SJ000521001]
27 | – | 16.7163 | CCCN(CCCNc1ccnc2cc(Cl)ccc12)Cc1ccc(C(=O)OC)cc1 [SJ000523042]

Continued, molecule first:

Row | Structure (SMILES) | percent inhibition (TR-FRET) [1] | percent inhibition (TR-FRET) [2]
28 | CCc1nc2ccccc2c(NC(=O)CNC(C)(C)CC(C)(C)C)c1C [SJ000049110] | -0.6045 | –
29 | c1ccc(CCc2ccc3c(NCCCNCc4ccco4)ccnc3c2)cc1 [SJ000311254] | – | 15.9461
30 | Clc1ccc2c(NCCCN(Cc3ccccc3)Cc3ccc4[nH]ccc4c3)ccnc2c1 [SJ000520430] | – | 66.4274
31 | O=S(=O)(c1ccccc1)c1cnc2ccc(Cl)cc2c1N1CCN(Cc2ccccc2)CC1 [SJ000247242] | -30.2832 | –
32 | CCCN(CCCNc1c2ccc(Cl)cc2nc2ccc(OC)cc12)Cc1cccc([N+](=O)[O-])c1 [SJ000520948] | – | -10.7413
33 | CCCN(CCCNc1ccnc2cc(C(F)(F)F)ccc12)Cc1ccsc1 [SJ000361254] | – | 28.8755
34 | CCOc1ccc2ncc(S(=O)(=O)c3ccccc3)c(N3CCN(c4ccc(F)cc4)CC3)c2c1 [SJ000083979] | -181.288 | –
35 | CCOc1ccc2ncc(S(=O)(=O)c3ccc(C)c(C)c3)c(N3CCN(CC)CC3)c2c1 [SJ000247355] | -13.3902 | –
36 | CCc1ccc(CN(CCCNc2ccnc3cc(Cl)ccc23)Cc2ccccc2)cc1 [SJ000520442] | – | 18.8867
37 | CCCN(CCCNc1ccnc2cc(C(F)(F)F)ccc12)Cc1ccc(OC(F)(F)F)cc1 [SJ000520474] | – | 17.3802
38 | CCc1ccc(S(=O)(=O)c2cnc3ccccc3c2N2CCN(C)CC2)cc1 [SJ000278939] | 11.585 | –
39 | COc1ccc2nc3cc(Cl)ccc3c(NCCCNCc3cc(F)ccc3F)c2c1 [SJ000361091] | -327.201 | –
40 | CCOc1ccc2ncc(C(=O)c3ccc(C)cc3)c(N3CCN(C)CC3)c2c1 [SJ000247254] | -10.6078 | –
41 | CCN1CCN(c2c(S(=O)(=O)c3ccc(Cl)cc3)cnc3cc(OC)c(OC)cc23)CC1 [SJ000083970] | -6.809 | –
42 | O=[N+]([O-])c1ccccc1CN(CCCNc1ccnc2cc(Cl)ccc12)Cc1ccccc1 [SJ000361177] | – | 16.421
43 | COc1ccc(OC(F)(F)F)cc1CN(CCCCNc1ccnc2cc(Cl)ccc12)Cc1ccccc1 [SJ000520447] | 26.6585 | –
44 | Clc1ccc2c(NCCCN(Cc3ccccc3)Cc3ccc(Br)o3)ccnc2c1 [SJ000312671] | – | -1.797
45 | Fc1ccccc1CN(CCCNc1ccnc2cc(Cl)ccc12)Cc1ccccc1 [SJ000361175] | – | 0.9627
46 | CCCN(CCCNc1ccnc2cc(C(F)(F)F)ccc12)Cc1ccc[nH]1 [SJ000361255] | – | 30.6641
47 | CCN1CCN(c2c(S(=O)(=O)c3ccc(C)cc3)cnc3ccc(OC)cc23)CC1 [SJ000083963] | -3.917 | –
48 | CCc1ccc2ncc(S(=O)(=O)c3ccc(Cl)cc3)c(N3CCN(CC)CC3)c2c1 [SJ000083968] | -19.1318 | –
49 | Cn1cc(CN(CCCNc2ccnc3cc(Cl)ccc23)Cc2ccccc2)c2ccccc21 [SJ000520439] | – | -9.311

Row | Structure (SMILES) | percent inhibition (TR-FRET) [1] | percent inhibition (TR-FRET) [2]
50 | COc1ccc2ncc(S(=O)(=O)c3ccccc3)c(N3CCN(c4ccc(F)cc4)CC3)c2c1 [SJ000083978] | -133.117 | –
51 | CN(C)CCCNc1c2c(nc3ccccc13)CCC2 [SJ000029259] | – | 24.0531
52 | CCc1ccc2ncc(S(=O)(=O)c3ccc(C)cc3)c(N3CCN(CC)CC3)c2c1 [SJ000083962] | 2.377 | –
53 | Fc1ccc(CN(CCCCNc2ccnc3cc(Cl)ccc23)Cc2ccccc2)cc1F [SJ000361197] | 26.0931 | –
54 | CCCN(CCCNc1ccnc2cc(C(F)(F)F)ccc12)Cc1ccc(C)o1 [SJ000361261] | – | 23.9069
55 | CCCN(CCCNc1c2ccc(Cl)cc2nc2ccc(OC)cc12)CC1CC1 [SJ000520936] | -271.356 | –
56 | Clc1ccc2c(NCCCCN(Cc3ccccc3)Cc3cccnc3Br)ccnc2c1 [SJ000520453] | 2.377 | –
57 | COC(=O)CCCCCN(CCCNc1ccnc2cc(Cl)ccc12)Cc1ccccc1 [SJ000520429] | – | 17.1364
58 | COc1ccc2ncc(S(=O)(=O)c3ccc(Cl)cc3)c(N3CCN(C)CC3)c2c1 [SJ000083952] | -3.658 | –
59 | Cc1ccc(CNCCCNc2ccnc3cc(Cl)ccc23)o1 [SJ000311326] | – | 10.2048
60 | Clc1ccc2c(NCCCCN(Cc3ccccc3)Cc3ccc4ccccc4c3)ccnc2c1 [SJ000361205] | 24.6356 | –
61 | CCOC(=O)c1cnc2c(C(=O)OC)cccc2c1NCCN1CCOCC1 [SJ000184799] | 4.043 | –
62 | CCCN(CCC)CCCNc1ccnc2cc(C(F)(F)F)ccc12 [SJ000361250] | – | 15.6779
63 | CCCN(CCCNc1ccnc2cc(C(F)(F)F)ccc12)Cc1ccc2c(c1)OCO2 [SJ000361270] | – | 5.623
64 | FC(F)(F)c1ccccc1CN(CCCCNc1ccnc2cc(Cl)ccc12)Cc1ccccc1 [SJ000361192] | 27.8155 | –
65 | Clc1ccc2c(NCCCCN(Cc3ccccc3)Cc3cccc4ccccc34)ccnc2c1 [SJ000361204] | 26.4906 | –
66 | Fc1ccc(Cc2ccc3c(NCCCNCc4ccco4)ccnc3c2)c(Cl)c1 [SJ000311322] | – | 24.7681
67 | CCOC(=O)c1ccc2ncc(C(=O)OCC)c(NCCCN3CCOCC3)c2c1 [SJ000176583] | – | 11.255
68 | Clc1ccc2c(NCCCCN(Cc3ccccc3)CC3CC3)ccnc2c1 [SJ000357485] | 18.3422 | –
69 | CCc1ccc2ncc(S(=O)(=O)c3ccc(OC)cc3)c(N3CCN(c4ccc(F)cc4)CC3)c2c1 [SJ000117064] | -9.084 | –
70 | CCCN(CCCNc1c2ccc(Cl)cc2nc2ccc(OC)cc12)Cc1ccccc1 [SJ000520925] | -127.926 | –
